Laboratory results: ChEMBL document CHEMBL3045495, “Lipophilic 2-(4-chlorophenyl)-4-thiazolyl-1,4-dihydropyridines: synthesis, calcium channel antagonist activity, and protection against pentylenetetrazole-induced seizure” (Med Chem Res, 2009)

Key:
[1] = molecular target: Voltage-dependent L-type calcium channel subunit alpha-1C (Cavia porcellus, UniProt O35505); assay: Antagonist activity at Calcium channel in Cavia porcellus (guinea pig) ileal smooth muscle assessed as inhibition of 40 mM KCl-induced contraction compound pretreated for 15 min before KCl treatment
[2] = test system: Mus musculus; assay: Anticonvulsant activity against pentylenetetrazole-induced seizures in Mus musculus NMRI (mouse) assessed as time of maximal effect at 20 mg/kg, ip administered 30 min before PTZ challenge; format: functional; settings: route intraperitoneal
[3] = test system: Mus musculus; assay: Anticonvulsant activity against pentylenetetrazole-induced seizures in Mus musculus NMRI (mouse) assessed as time of maximal effect at 10 mg/kg, ip administered 30 min before PTZ challenge (reference value: 24.86 +/- 0.96 min); format: functional; settings: route intraperitoneal
[4] = test system: Mus musculus; assay: Anticonvulsant activity against pentylenetetrazole-induced seizures in Mus musculus NMRI (mouse) assessed as time of maximal effect at 5 mg/kg, ip administered 30 min before PTZ challenge; format: functional; settings: route intraperitoneal
[5] = test system: Mus musculus; assay: Anticonvulsant activity against pentylenetetrazole-induced seizures in Mus musculus NMRI (mouse) assessed as time of maximal effect at 20 mg/kg, ip administered 60 min before PTZ challenge; format: functional; settings: route intraperitoneal
[6] = test system: Mus musculus; assay: Anticonvulsant activity against pentylenetetrazole-induced seizures in Mus musculus NMRI (mouse) assessed as time of maximal effect at 60 mg/kg, ip administered 15 min before PTZ challenge (reference value: 24.86 +/- 0.96 min); format: functional; settings: route intraperitoneal
[7] = test system: Mus musculus; assay: Anticonvulsant activity against pentylenetetrazole-induced seizures in Mus musculus NMRI (mouse) assessed as time of maximal effect at 5 mg/kg, ip administered 60 min before PTZ challenge; format: functional; settings: route intraperitoneal
[8] = test system: Mus musculus; assay: Anticonvulsant activity against pentylenetetrazole-induced seizures in Mus musculus NMRI (mouse) assessed as time of maximal effect at 20 mg/kg, ip administered 15 min before PTZ challenge; format: functional; settings: route intraperitoneal
[9] = test system: Mus musculus; assay: Anticonvulsant activity against pentylenetetrazole-induced seizures in Mus musculus NMRI (mouse) assessed as time of maximal effect at 10 mg/kg, ip administered 15 min before PTZ challenge (reference value: 24.86 +/- 0.96 min); format: functional; settings: route intraperitoneal
[10] = test system: Mus musculus; assay: Anticonvulsant activity against pentylenetetrazole-induced seizures in Mus musculus NMRI (mouse) assessed as time of maximal effect at 5 mg/kg, ip administered 15 min before PTZ challenge; format: functional; settings: route intraperitoneal

Sequence of Voltage-dependent L-type calcium channel subunit alpha-1C (O35505 whole entry): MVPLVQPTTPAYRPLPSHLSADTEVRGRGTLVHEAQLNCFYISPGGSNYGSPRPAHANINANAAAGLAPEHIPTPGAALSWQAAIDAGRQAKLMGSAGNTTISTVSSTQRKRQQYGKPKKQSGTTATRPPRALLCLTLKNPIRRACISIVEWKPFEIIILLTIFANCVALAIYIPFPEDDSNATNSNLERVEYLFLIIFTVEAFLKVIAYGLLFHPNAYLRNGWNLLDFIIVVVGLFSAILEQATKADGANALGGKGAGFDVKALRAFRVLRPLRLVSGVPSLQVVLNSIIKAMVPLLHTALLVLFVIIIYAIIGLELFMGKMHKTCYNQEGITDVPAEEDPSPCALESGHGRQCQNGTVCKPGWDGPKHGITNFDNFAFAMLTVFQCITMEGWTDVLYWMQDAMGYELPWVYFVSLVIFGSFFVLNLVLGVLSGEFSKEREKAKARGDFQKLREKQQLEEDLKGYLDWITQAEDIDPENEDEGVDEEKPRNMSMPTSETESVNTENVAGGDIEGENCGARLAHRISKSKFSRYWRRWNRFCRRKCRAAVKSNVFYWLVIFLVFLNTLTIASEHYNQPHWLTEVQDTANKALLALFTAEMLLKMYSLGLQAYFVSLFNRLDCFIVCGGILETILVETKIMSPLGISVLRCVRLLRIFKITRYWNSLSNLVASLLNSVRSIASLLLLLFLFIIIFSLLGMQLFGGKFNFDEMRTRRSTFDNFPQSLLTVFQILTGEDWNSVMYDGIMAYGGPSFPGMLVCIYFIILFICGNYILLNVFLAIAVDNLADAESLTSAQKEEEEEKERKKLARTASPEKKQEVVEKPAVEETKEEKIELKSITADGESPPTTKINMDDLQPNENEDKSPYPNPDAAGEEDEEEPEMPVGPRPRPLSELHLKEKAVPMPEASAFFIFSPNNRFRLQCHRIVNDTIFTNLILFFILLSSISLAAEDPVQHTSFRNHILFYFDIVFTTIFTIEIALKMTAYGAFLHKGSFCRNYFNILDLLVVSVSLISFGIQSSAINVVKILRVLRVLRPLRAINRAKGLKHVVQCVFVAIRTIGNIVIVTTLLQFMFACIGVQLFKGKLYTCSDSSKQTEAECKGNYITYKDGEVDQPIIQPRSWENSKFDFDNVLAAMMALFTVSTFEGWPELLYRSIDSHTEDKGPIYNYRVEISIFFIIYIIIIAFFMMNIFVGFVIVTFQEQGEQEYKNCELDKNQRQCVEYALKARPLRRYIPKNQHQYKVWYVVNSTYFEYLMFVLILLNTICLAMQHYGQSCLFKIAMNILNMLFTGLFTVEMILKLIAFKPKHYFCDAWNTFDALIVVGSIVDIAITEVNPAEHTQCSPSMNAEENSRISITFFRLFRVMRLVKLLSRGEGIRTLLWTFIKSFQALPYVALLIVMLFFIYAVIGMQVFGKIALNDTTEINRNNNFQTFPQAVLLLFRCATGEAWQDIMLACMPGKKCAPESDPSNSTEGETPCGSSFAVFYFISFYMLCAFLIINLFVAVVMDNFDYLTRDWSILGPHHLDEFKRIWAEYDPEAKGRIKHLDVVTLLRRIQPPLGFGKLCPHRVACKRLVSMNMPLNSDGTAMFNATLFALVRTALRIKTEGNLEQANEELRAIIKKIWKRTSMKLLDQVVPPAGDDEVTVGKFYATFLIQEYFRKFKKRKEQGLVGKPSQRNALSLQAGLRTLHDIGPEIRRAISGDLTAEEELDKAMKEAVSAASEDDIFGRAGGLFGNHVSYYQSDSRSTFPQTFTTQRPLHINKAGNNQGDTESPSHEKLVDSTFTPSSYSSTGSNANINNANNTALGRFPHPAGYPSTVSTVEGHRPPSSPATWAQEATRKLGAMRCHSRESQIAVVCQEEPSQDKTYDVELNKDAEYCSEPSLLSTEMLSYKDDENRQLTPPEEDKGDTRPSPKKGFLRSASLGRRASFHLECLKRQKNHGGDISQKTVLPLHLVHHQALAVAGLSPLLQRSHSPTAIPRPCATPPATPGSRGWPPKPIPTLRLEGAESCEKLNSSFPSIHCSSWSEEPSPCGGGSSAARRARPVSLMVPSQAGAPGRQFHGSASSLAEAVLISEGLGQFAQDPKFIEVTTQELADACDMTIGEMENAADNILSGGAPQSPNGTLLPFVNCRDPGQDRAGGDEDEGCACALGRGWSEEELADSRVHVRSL

SMILES | IC50 [1] | Time [2] | Time [3] | Time [4] | other results
CCOC(=O)C1=C(C)NC(C)=C(C(=O)OC2CCCCC2)C1c1csc(-c2ccc(Cl)cc2)n1 (centres undefined) | 100 µM | – | – | – | –
COC(=O)C1=C(C)NC(C)=C(C(=O)OC)C1c1ccccc1[N+](=O)[O-] [NIFEDIPINE] | – | 48.3 min | 43.88 min | 40.66 min | –
CC1=C(C(=O)OC(C)C)C(c2csc(-c3ccc(Cl)cc3)n2)C(C(=O)OC(C)C)=C(C)N1 | 37.2 µM | – | – | – | –
COC(=O)C1=C(C)NC(C)=C(C(=O)OCC(C)C)C1c1csc(-c2ccc(Cl)cc2)n1 (centres undefined) | 46.9 µM | – | – | – | –
CC1=C(C(=O)OC(C)(C)C)C(c2csc(-c3ccc(Cl)cc3)n2)C(C(=O)OC(C)(C)C)=C(C)N1 | 21 µM | – | – | – | –
CC1=C(C(=O)OC2CCCC2)C(c2csc(-c3ccc(Cl)cc3)n2)C(C(=O)OC2CCCC2)=C(C)N1 | 19 µM | – | – | – | –
COC(=O)C1=C(C)NC(C)=C(C(=O)OC(C)(C)C)C1c1csc(-c2ccc(Cl)cc2)n1 (centres undefined) | 46 µM | – | – | – | –
CCOC(=O)C1=C(C)NC(C)=C(C(=O)OC)C1c1csc(-c2ccc(Cl)cc2)n1 (centres undefined) | 22 µM | – | – | – | –
CCOC(=O)C1=C(C)NC(C)=C(C(=O)OCC(C)C)C1c1csc(-c2ccc(Cl)cc2)n1 (centres undefined) | 15.4 µM | – | – | – | –
CC1=C(C(=O)OC(C)c2ccccc2)C(c2csc(-c3ccc(Cl)cc3)n2)C(C(=O)OC(C)c2ccccc2)=C(C)N1 (centres undefined) | 400 µM | – | – | – | –
CC1=C(C(=O)OCCc2ccccc2)C(c2csc(-c3ccc(Cl)cc3)n2)C(C(=O)OCCc2ccccc2)=C(C)N1 | 500 µM | – | – | – | –
CC1=C(C(=O)OCC(C)C)C(c2csc(-c3ccc(Cl)cc3)n2)C(C(=O)OCC(C)C)=C(C)N1 | 24.9 µM | 47.62 min | 39.32 min | 37.5 min | –
COC(=O)C1=C(C)NC(C)=C(C(=O)OCc2ccccc2)C1c1csc(-c2ccc(Cl)cc2)n1 (centres undefined) | 64.9 µM | – | – | – | –
COC(=O)C1=C(C)NC(C)=C(C(=O)OC2CCCCC2)C1c1csc(-c2ccc(Cl)cc2)n1 (centres undefined) | 71.9 µM | – | – | – | –
CCOC(=O)C1=C(C)NC(C)=C(C(=O)OC(C)(C)C)C1c1csc(-c2ccc(Cl)cc2)n1 (centres undefined) | 91 µM | – | – | – | –

Continued, in another order:

IC50 [1] | SMILES | Time [2] | Time [3] | Time [4] | other results
10.2 µM | COC(=O)C1=C(C)NC(C)=C(C(=O)OCCc2ccccc2)C1c1csc(-c2ccc(Cl)cc2)n1 (centres undefined) | – | – | – | –
7.62 µM | COC(=O)C1=C(C)NC(C)=C(C(=O)OC(C)c2ccccc2)C1c1csc(-c2ccc(Cl)cc2)n1 (centres undefined) | 43.06 min | 42.1 min | 27.82 min | –
3.29 µM | CCOC(=O)C1=C(C)NC(C)=C(C(=O)OCc2ccccc2)C1c1csc(-c2ccc(Cl)cc2)n1 (centres undefined) | – | – | – | Time [5]: 39.6 min; Time [6]: 37.82 min; Time [7]: 33.87 min
4.8 µM | CCCOC(=O)C1=C(C)NC(C)=C(C(=O)OCCC)C1c1csc(-c2ccc(Cl)cc2)n1 | 42.05 min | 36.26 min | 34.75 min | –
13.8 µM | CCOC(=O)C1=C(C)NC(C)=C(C(=O)OC(C)c2ccccc2)C1c1csc(-c2ccc(Cl)cc2)n1 (centres undefined) | – | – | – | –
12.1 µM | CCOC(=O)C1=C(C)NC(C)=C(C(=O)OCCc2ccccc2)C1c1csc(-c2ccc(Cl)cc2)n1 (centres undefined) | – | – | – | –
2.55 µM | CCOC(=O)C1=C(C)NC(C)=C(C(=O)OC(C)C)C1c1csc(-c2ccc(Cl)cc2)n1 (centres undefined) | 44.64 min | 35.87 min | 34.2 min | –
5.92 µM | CCCOC(=O)C1=C(C)NC(C)=C(C(=O)OC)C1c1csc(-c2ccc(Cl)cc2)n1 (centres undefined) | 43.8 min | 37.6 min | 31.7 min | –
4.09 µM | CCCOC(=O)C1=C(C)NC(C)=C(C(=O)OCC)C1c1csc(-c2ccc(Cl)cc2)n1 (centres undefined) | – | – | – | Time [5]: 42.32 min; Time [6]: 37.07 min; Time [7]: 34.5 min
13.6 µM | COC(=O)C1=C(C)NC(C)=C(C(=O)OC(C)C)C1c1csc(-c2ccc(Cl)cc2)n1 (centres undefined) | – | – | – | –
8.38 µM | CCOC(=O)C1=C(C)NC(C)=C(C(=O)OC2CCCC2)C1c1csc(-c2ccc(Cl)cc2)n1 (centres undefined) | 47.8 min | 38.8 min | 39.6 min | –
11 µM | CC1=C(C(=O)OC2CCCCC2)C(c2csc(-c3ccc(Cl)cc3)n2)C(C(=O)OC2CCCCC2)=C(C)N1 | – | – | – | Time [8]: 37.86 min; Time [9]: 35.59 min; Time [10]: 35.65 min
4.43 µM | COC(=O)C1=C(C)NC(C)=C(C(=O)OC)C1c1csc(-c2ccc(Cl)cc2)n1 | 44.3 min | 40.94 min | 39.05 min | –
3.65 µM | CCOC(=O)C1=C(C)NC(C)=C(C(=O)OCC)C1c1csc(-c2ccc(Cl)cc2)n1 | 39.07 min | 32.64 min | 27.76 min | –
7.29 µM | COC(=O)C1=C(C)NC(C)=C(C(=O)OC2CCCC2)C1c1csc(-c2ccc(Cl)cc2)n1 (centres undefined) | 42.7 min | 34.42 min | 33.22 min | –
11 µM | CC1=C(C(=O)OCc2ccccc2)C(c2csc(-c3ccc(Cl)cc3)n2)C(C(=O)OCc2ccccc2)=C(C)N1 | – | – | – | –
